# Like-named read-outs stand apart in the source and are kept apart here.
# Biological target: T1, wild-type mouse TMEM16A (Mus musculus, UniProt Q8BHY3)
# T1 construct: expressed in transfected cells; host or cells: HEK293T
# T1 sequence (Q8BHY3 1-960): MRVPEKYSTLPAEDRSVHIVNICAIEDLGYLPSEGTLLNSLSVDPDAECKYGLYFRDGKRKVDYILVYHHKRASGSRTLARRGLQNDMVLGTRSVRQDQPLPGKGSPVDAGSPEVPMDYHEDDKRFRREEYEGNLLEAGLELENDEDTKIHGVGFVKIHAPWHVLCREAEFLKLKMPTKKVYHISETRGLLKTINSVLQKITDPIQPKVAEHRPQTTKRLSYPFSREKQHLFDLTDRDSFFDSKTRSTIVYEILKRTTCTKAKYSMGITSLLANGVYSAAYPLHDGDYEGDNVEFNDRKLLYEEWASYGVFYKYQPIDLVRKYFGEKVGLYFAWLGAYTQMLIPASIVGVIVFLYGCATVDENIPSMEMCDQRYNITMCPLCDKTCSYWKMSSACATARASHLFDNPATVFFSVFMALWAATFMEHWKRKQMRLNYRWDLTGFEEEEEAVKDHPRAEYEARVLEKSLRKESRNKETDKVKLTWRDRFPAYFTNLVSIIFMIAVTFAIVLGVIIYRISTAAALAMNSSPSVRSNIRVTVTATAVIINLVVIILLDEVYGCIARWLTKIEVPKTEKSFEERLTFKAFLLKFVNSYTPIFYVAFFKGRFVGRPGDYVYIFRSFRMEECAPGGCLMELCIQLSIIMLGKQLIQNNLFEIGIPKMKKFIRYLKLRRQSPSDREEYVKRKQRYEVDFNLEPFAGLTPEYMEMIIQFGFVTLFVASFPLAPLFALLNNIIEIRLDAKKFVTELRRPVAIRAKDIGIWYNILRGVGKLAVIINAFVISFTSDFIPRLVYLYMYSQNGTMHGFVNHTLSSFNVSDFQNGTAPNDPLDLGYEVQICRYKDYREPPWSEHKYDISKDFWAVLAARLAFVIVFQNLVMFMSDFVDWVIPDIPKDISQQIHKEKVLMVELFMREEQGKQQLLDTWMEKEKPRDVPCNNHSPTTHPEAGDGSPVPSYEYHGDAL
# Assay: Inside-out patch recording of 1PBC block, wild-type TMEM16A
# Assay type: cell-based
# Conditions: for remaining activity at 3 µM / remaining activity at 10 µM: read-out: I/Imax
# Procedure: HEK293T cells (ATCC CRL-1573) were maintained in Dulbecco’s modified Eagle’s medium (DMEM; Sigma-Aldrich) supplemented with 10 U ml^−1 penicillin, 0.1 mg ml^−1 streptomycin (Sigma-Aldrich), 2 mM L-glutamine (Sigma-Aldrich), and 10% FBS (Sigma-Aldrich) in a humidified atmosphere containing 5% CO2 at 37 °C. HEK293S GnTI^− cells (ATCC CRL-3022) were maintained in HyClone HyCell TransFx-H medium (GE Healthcare) supplemented with 10 U ml^−1 penicillin, 0.1 mg ml^−1 streptomycin, 4 mM L-glutamine, 0.15% poloxamer 188 (Sigma-Aldrich), and 1% FBS in an atmosphere containing 5% CO2 at 185 rpm at 37 °C. The ac splice variant of mouse TMEM16A (UniProt ID: Q8BHY3), mouse TMEM16B (UniProt ID: Q8CFW1), or mouse TMEM16F (UniProt ID: Q6P9J9) bearing a 3C cleavage site, a Venus YFP, a Myc tag, and a Streptavidin-binding peptide (SBP) downstream of the open reading frame in a modified pcDNA3.1 vector (Invitrogen) were used as described previously[21],[31]. Mutations were introduced using a modified QuikChange method[58] and were verified by sequencing.
# HEK293T cells were transfected with 3–4 μg DNA per 6 cm Petri dish using the calcium phosphate co-precipitation method and were used within 24–96 h after transfection. Recordings were performed on inside-out patches excised from HEK293T cells expressing the construct of interest. Patch pipettes were pulled from borosilicate glass capillaries (O.D. 1.5 mm, I.D. 0.86 mm, Sutter Instrument) and were fire-polished with a microforge (Narishige) before use. Pipette resistance was typically 3–8 MΩ when filled with the recording solutions detailed below. Seal resistance was typically 4 GΩ or higher. Voltage-clamp recordings were made using Axopatch 200B, Digidata 1550, and Clampex 10.7 (Molecular Devices). Analog signals were filtered with the in-built 4-pole Bessel filter at 10 kHz and were digitized at 20 kHz. Solution exchange was achieved using a gravity-fed system through a theta glass pipette mounted on an ultra-fast piezo-driven stepper (Siskiyou). […] All recordings were performed at 20 °C.
# A symmetrical ionic condition was used throughout. Stock solution with Ca^2+-EGTA contained 150 mM NaCl, 5.99 mM Ca(OH)2, 5 mM EGTA, and 10 mM HEPES at pH 7.40. Stock solution with EGTA contained 150 mM NaCl, 5 mM EGTA, and 10 mM HEPES at pH 7.40. Free Ca^2+ concentrations were adjusted by mixing the stock solutions at the required ratios calculated using the WEBMAXC program (http://web.stanford.edu/~cpatton/webmaxcS.htm). Patch pipettes were filled with the stock solution with Ca^2+-EGTA, which has a free Ca^2+ concentration of 1 mM. 1PBC (ChemBridge) stock was reconstituted in anhydrous DMSO (Sigma-Aldrich) at 100 mM and stored at −20 °C. Working solutions with 1PBC were prepared by serial dilution. Unless otherwise stated, experiments were performed at a saturating Ca^2+ concentration as shown in Supplementary Table 1 and the primary data were corrected for current rundown as described previously[21],[25].
# Concentration-response relations, obtained from the ratio of the I-V plots before and after the application of the blocker, were fitted to the Hill equation,1 I/Imax=1/1+IC50/[blocker]^h where I/Imax is the normalized current responses, IC50 defines the concentration at which inhibition is at its half-maximum, and h is the Hill coefficient.
smiles,measurement,setting,value
N#Cc1c(C(F)(F)F)cc(O)n2c1nc1ccccc12 [1PBC],Steady-state current (normalized),"3 µM 1PBC, 60 mV, 2 µM Ca2+",0.2233
same,remaining activity at 3 µM,"3 µM 1PBC, 60 mV, 2 µM Ca2+",40.5%
same,Steady-state current (normalized),"3 µM 1PBC, 80 mV, 2 µM Ca2+",0.2697
same,remaining activity at 3 µM,"3 µM 1PBC, 80 mV, 2 µM Ca2+",38.1%
same,Steady-state current (normalized),"3 µM 1PBC, 100 mV, 2 µM Ca2+",0.3173
same,remaining activity at 3 µM,"3 µM 1PBC, 100 mV, 2 µM Ca2+",37.3%
same,Steady-state current (normalized),"3 µM 1PBC, 120 mV, 2 µM Ca2+",0.3753
same,remaining activity at 3 µM,"3 µM 1PBC, 120 mV, 2 µM Ca2+",38.6%
same,Steady-state current (normalized),"3 µM 1PBC, 140 mV, 2 µM Ca2+",0.4543
same,remaining activity at 3 µM,"3 µM 1PBC, 140 mV, 2 µM Ca2+",41.8%
same,Steady-state current (normalized),"3 µM 1PBC, -20 mV, 2 µM Ca2+",-0.1133
same,remaining activity at 3 µM,"3 µM 1PBC, -20 mV, 2 µM Ca2+",58.9%
same,Steady-state current (normalized),"3 µM 1PBC, -40 mV, 2 µM Ca2+",-0.2482
same,remaining activity at 3 µM,"3 µM 1PBC, -40 mV, 2 µM Ca2+",63.9%
same,Steady-state current (normalized),"3 µM 1PBC, -60 mV, 2 µM Ca2+",-0.3977
same,remaining activity at 3 µM,"3 µM 1PBC, -60 mV, 2 µM Ca2+",68.6%
same,Steady-state current (normalized),"3 µM 1PBC, -80 mV, 2 µM Ca2+",-0.557
same,remaining activity at 3 µM,"3 µM 1PBC, -80 mV, 2 µM Ca2+",72.6%
same,Steady-state current (normalized),"3 µM 1PBC, -100 mV, 2 µM Ca2+",-0.718
same,remaining activity at 3 µM,"3 µM 1PBC, -100 mV, 2 µM Ca2+",75.6%
same,Steady-state current (normalized),"3 µM 1PBC, -120 mV, 2 µM Ca2+",-0.8735
same,remaining activity at 3 µM,"3 µM 1PBC, -120 mV, 2 µM Ca2+",78.1%
same,Steady-state current (normalized),"3 µM 1PBC, -140 mV, 2 µM Ca2+",-1.031
same,remaining activity at 3 µM,"3 µM 1PBC, -140 mV, 2 µM Ca2+",80.3%
same,Steady-state current (normalized),"10 µM 1PBC, 0 mV, 2 µM Ca2+",0.0007397
same,remaining activity at 10 µM,"10 µM 1PBC, 0 mV, 2 µM Ca2+",30.3%
same,I/Imax scaled to open probability,"10 µM 1PBC, 400 nM Ca2+, 80 mV",0.1226
same,I/Imax scaled to open probability,"10 µM 1PBC, 800 nM Ca2+, 80 mV",0.1094
same,I/Imax scaled to open probability,"10 µM 1PBC, 2 µM Ca2+, 80 mV",0.1474
same,Steady-state current (normalized),"10 µM 1PBC, 20 mV, 2 µM Ca2+",0.04925
same,remaining activity at 10 µM,"10 µM 1PBC, 20 mV, 2 µM Ca2+",25.3%
same,Steady-state current (normalized),"10 µM 1PBC, 40 mV, 2 µM Ca2+",0.08188
same,remaining activity at 10 µM,"10 µM 1PBC, 40 mV, 2 µM Ca2+",21.7%
same,Steady-state current (normalized),"10 µM 1PBC, 60 mV, 2 µM Ca2+",0.1024
same,remaining activity at 10 µM,"10 µM 1PBC, 60 mV, 2 µM Ca2+",18.6%
same,Steady-state current (normalized),"10 µM 1PBC, 80 mV, 2 µM Ca2+",0.1202
same,remaining activity at 10 µM,"10 µM 1PBC, 80 mV, 2 µM Ca2+",17%
same,Steady-state current (normalized),"10 µM 1PBC, 100 mV, 2 µM Ca2+",0.1383
same,remaining activity at 10 µM,"10 µM 1PBC, 100 mV, 2 µM Ca2+",16.3%
same,Steady-state current (normalized),"10 µM 1PBC, 120 mV, 2 µM Ca2+",0.1588
same,remaining activity at 10 µM,"10 µM 1PBC, 120 mV, 2 µM Ca2+",16.3%
same,Steady-state current (normalized),"10 µM 1PBC, 140 mV, 2 µM Ca2+",0.1862
same,remaining activity at 10 µM,"10 µM 1PBC, 140 mV, 2 µM Ca2+",17.1%
same,Steady-state current (normalized),"10 µM 1PBC, -20 mV, 2 µM Ca2+",-0.06795
same,remaining activity at 10 µM,"10 µM 1PBC, -20 mV, 2 µM Ca2+",35.3%
same,Steady-state current (normalized),"10 µM 1PBC, -40 mV, 2 µM Ca2+",-0.1586
same,remaining activity at 10 µM,"10 µM 1PBC, -40 mV, 2 µM Ca2+",40.9%
